Experimental data reported in PubChem BioAssay AID2605 (Johns Hopkins Ion Channel Center, 2010).

Target: Voltage-gated inwardly rectifying potassium channel KCNH2 (Homo sapiens) (UniProt Q12809)
Assay: hERG rescue from dofetilide block, confirmation, manual patch clamp, HEK293 cells (AID 2605)
Details: at 10 µM, stronger effect = higher value; for potentiation: measured here: hERG potentiation without dofetilide

Chain of Voltage-gated inwardly rectifying potassium channel KCNH2 (Homo sapiens) (Q12809 whole entry, looked up): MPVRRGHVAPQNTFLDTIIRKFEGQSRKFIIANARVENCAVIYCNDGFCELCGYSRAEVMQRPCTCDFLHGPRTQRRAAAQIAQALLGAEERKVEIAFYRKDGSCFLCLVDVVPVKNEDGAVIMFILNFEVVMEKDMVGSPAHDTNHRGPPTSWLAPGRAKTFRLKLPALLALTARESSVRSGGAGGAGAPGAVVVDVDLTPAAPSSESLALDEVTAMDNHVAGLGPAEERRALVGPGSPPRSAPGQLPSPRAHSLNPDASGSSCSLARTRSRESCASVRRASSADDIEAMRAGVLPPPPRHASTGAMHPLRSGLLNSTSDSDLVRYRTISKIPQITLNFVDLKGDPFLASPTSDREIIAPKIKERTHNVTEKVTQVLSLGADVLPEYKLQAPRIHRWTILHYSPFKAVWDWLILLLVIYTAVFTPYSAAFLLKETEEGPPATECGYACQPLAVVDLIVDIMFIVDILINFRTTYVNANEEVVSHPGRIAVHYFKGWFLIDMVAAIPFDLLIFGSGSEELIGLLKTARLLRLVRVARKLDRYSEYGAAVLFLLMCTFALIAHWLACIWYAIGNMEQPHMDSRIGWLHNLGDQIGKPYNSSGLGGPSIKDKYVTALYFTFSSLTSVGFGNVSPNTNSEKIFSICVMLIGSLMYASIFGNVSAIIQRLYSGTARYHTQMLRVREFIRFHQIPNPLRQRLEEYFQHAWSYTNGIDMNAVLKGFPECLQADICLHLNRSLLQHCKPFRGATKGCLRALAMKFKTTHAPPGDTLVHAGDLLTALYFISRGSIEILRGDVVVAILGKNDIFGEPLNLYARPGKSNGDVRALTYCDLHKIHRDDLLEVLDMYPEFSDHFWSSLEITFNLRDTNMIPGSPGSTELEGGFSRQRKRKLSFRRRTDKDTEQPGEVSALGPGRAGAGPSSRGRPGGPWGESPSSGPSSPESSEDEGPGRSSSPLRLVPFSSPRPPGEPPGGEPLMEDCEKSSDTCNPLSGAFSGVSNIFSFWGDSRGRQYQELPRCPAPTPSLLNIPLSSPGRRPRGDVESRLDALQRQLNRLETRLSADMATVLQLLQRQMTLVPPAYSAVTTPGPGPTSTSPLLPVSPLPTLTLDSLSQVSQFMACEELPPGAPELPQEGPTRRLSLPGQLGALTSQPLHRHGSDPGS

O=C(NC(=S)Nc1ccccc1)c1cc(-c2ccccc2)nc2ccccc12
current remaining with dofetilide: 31%
potentiation: 119%

O=C1C2CC=CCC2C(=O)N1c1ccc(Cc2ccncc2)cc1 (stereo not given)
current remaining with dofetilide: 33.8%
potentiation: 107%

CCC1CCCCN1C(=S)NC(=O)c1cccs1 (stereo not given)
current remaining with dofetilide: 46.5%
potentiation: 140%

Cc1cccc(NC(=S)NC(=O)c2cc(-c3ccccc3)nc3ccccc23)c1
current remaining with dofetilide: 32.2%
potentiation: 107%

Cc1ccc(NC(=S)c2nc3ccccc3s2)cc1
current remaining with dofetilide: 23.9%
potentiation: 107%
